Source: patent publication US20110039763A1, “TARGETED ANTIMICROBIAL MOIETIES” (C3 JIAN, INC., priority 2009, published 2011)
Entries after “also recorded” stand apart in the source; their conditions may differ. Ends that are not written are not given here.

What was measured:
[1] = test system: microorganisms; experiment: Morphology, biofilm and growth disrupting peptides (Table 5); format: cell-based; set-up: key: A: Peptide aggregates; B: Less hyphal formation; Clumps; Diffuse clumps and small polyps; F: Diffuse growth; H: Thin; I: Growth inhibition; Microcolony formation; Rippled; Small polyps; Thick; W: Halo formation on top, microlonies on bottom
From the text: In certain embodiments peptides that induce alterations in phenotype or other biological activities can also be used as antimicrobial effector moieties.

[2] = test system: microorganisms; experiment: Targeting peptide binding to target microorganisms (Tables 3, 10, 12); details: microorganism(s) the targeting peptide binds; binding in aqueous buffers varied with peptide solubility, preferably 1x PBS
[3] = test system: microorganisms; experiment: Peptide activities: targeting/binding, antimicrobial, growth or phenotype altering (Tables 7, 8); format: cell-based; details: peptides having multiple activities

Substance	Organism, effect ([1]; S. pneumoniae)	Target(s) [2]	Activities [3]	Organism, effect ([1]; E. faecalis)	Organism, effect ([1]; MRSA)	Organism, effect ([1]; S. epidermidis)	Organism, effect ([1]; E. coli)	Organism, effect ([1]; C. jejuni)
PF-445: peptide having multiple activities (ASMTKRLKLAMSKV; Peptide with targeting and/or antimicrobial activity)	S. pneumoniae (M)	M. luteus; also recorded: S. pneumoniae; also recorded: C. jeikeium	G B	–	–	–	–	–
PF-446: peptide having multiple activities (SGNEKV; Peptide with targeting and/or antimicrobial activity)	S. pneumoniae (H)	M. luteus; also recorded: C. jeikeium	G B	–	–	–	–	–
PF-447: peptide having multiple activities (IDKSRNKDQFSHIFGLYNICSG; Peptide with targeting and/or antimicrobial activity)	S. pneumoniae (C)	S. epidermidis; also recorded: M. luteus; also recorded: E. coli; also recorded: S. pneumoniae	G B	E. faecalis (C)	MRSA (C)	S. epidermidis (C)	–	–
PF-452: peptide having multiple activities (MNNWIKVAQISVTVINEVIDIMKEKQNGGK; Peptide with targeting and/or antimicrobial activity)	S. pneumoniae (R)	M. luteus; also recorded: P. aeruginosa; also recorded: C. albicans; also recorded: S. pneumoniae; also recorded: E. faecalis; also recorded: C. jeikeium; also recorded: M. smegmatis	G B	E. faecalis (C)	MRSA (C)	S. epidermidis (C)	E. coli (C)	–
PF-453: peptide having multiple activities (IIQDIAHAFGY; Peptide with targeting and/or antimicrobial activity)	S. pneumoniae (C)	M. luteus; also recorded: E. coli; also recorded: P. aeruginosa; also recorded: S. pneumoniae; also recorded: E. faecalis; also recorded: C. jeikeium; also recorded: C. jejuni	G B	–	MRSA (C)	S. epidermidis (C)	E. coli (C)	–
PF-456: peptide having multiple activities (TCVKPRTIN; Peptide with targeting and/or antimicrobial activity)	–	C. albicans and MRSA and E. faecalis and C. jeikeium and C. jejuni	G B	E. faecalis (A)	–	–	–	C. jejuni (A)
PF-457: peptide having multiple activities (INKYHHIA; Peptide with targeting and/or antimicrobial activity)	S. pneumoniae (M)	C. albicans; also recorded: S. pneumoniae; also recorded: E. faecalis; also recorded: C. jeikeium	G B	–	–	–	–	–
PF-459: peptide having multiple activities (EKRMSFNENQSHRPLL; Peptide with targeting and/or antimicrobial activity)	S. pneumoniae (H)	P. aeruginosa	G B	–	–	–	–	–
PF-462: peptide having multiple activities (KNKTDTL; Peptide with targeting and/or antimicrobial activity)	S. pneumoniae (H)	E. faecalis; also recorded: C. jeikeium	G B	–	–	–	–	–
PF-464: peptide having multiple activities (VDMVNRFLGN; Peptide with targeting and/or antimicrobial activity)	S. pneumoniae (S)	S. epidermidis and C. albicans and MRSA and S. pneumoniae and E. faecalis and C. jeikeium and C. jejuni	G B	–	–	–	–	–
PF-466: peptide having multiple activities (VRKSDQ; Peptide with targeting and/or antimicrobial activity)	S. pneumoniae (H)	MRSA and C. jeikeium and C. jejuni	G B	–	–	–	–	–
PF-467: peptide having multiple activities (YYKDYFKEI; Peptide with targeting and/or antimicrobial activity)	S. pneumoniae (H)	MRSA and E. faecalis and C. jeikeium and C. jejuni	G B	–	–	–	–	–
PF-470: peptide having multiple activities (PYSDSYATRPHWEQHRAR; Peptide with targeting and/or antimicrobial activity)	–	M. luteus and E. coli and MRSA and E. faecalis and C. jeikeium and C. jejuni	G B	E. faecalis (A)	–	–	–	C. jejuni (A)
PF-476: peptide having multiple activities (WADAQYKLCENCSE; Peptide with targeting and/or antimicrobial activity)	S. pneumoniae (H)	M. luteus; also recorded: P. mirabilis; also recorded: C. albicans; also recorded: S. pneumoniae; also recorded: E. faecalis; also recorded: C. jeikeium; also recorded: C. jejuni	G B	–	–	–	–	–
PF-484: peptide having multiple activities (HKKDIRKQVFKN; Peptide with targeting and/or antimicrobial activity)	–	S. epidermidis; also recorded: M. luteus; also recorded: P. mirabilis; also recorded: E. coli; also recorded: E. faecalis; also recorded: C. jeikeium; also recorded: C. jejuni	G B	E. faecalis (A)	–	–	–	–
PF-513: peptide having multiple activities (SNGVGLGVGIGSGIRF-NH2)	S. pneumoniae (M)	C. albicans	G B	–	–	–	–	–
PF-514: peptide having multiple activities (QRFYKLFYHIDLTNEQALKLFQVK; Peptide with targeting and/or antimicrobial activity)	S. pneumoniae (M)	S. epidermidis and E. coli and P. aeruginosa and C. albicans and MRSA and S. pneumoniae and E. faecalis and C. jeikeium	G B	E. faecalis (C)	–	S. epidermidis (C)	E. coli (R)	–
PF-515: peptide having multiple activities (DKSTQDKDIKQAKLLAQELGL-NH2)	S. pneumoniae (H)	S. epidermidis; also recorded: C. albicans; also recorded: S. pneumoniae; also recorded: C. jeikeium	G B	–	–	–	–	–
PF-517: peptide having multiple activities (VKPTMTASLISTVC; Peptide with targeting and/or antimicrobial activity)	S. pneumoniae (M)	C. jejuni	G B	–	–	–	–	–
